Experimental data: US6455561B1, “Heterocyclic compounds and their therapeutic use” (Darwin Discovery, Ltd., priority 2000, dated 2002)

System: eosinophilia
Assay: Guinea pig lung model (inhibition of eosinophilia)
Format: in vivo
Settings: dosed at 3 mg/kg
Procedure: Activity in a guinea pig lung model is measured using the procedures described by Mauser et al, Am. Rev. Respir. Dis. 148:1623 (1993), and Am. J. Respir. Crit. Care Med. 152:467 (1995).

`COCc1cc2c(C(=O)Nc3c(C)noc3C)ccc(OC)c2o1` [Example 10, 7-Methoxy-2-methoxymethylbenzofuran-4-carboxylic Acid (3,5-dimethylisoxazol-4-yl)-amide] gave an inhibition of eosinophilia of 35%.
